# Columns and labels:
# AZD8186 = compound: C[C@@H](Nc1cc(F)cc(F)c1)c1cc(C(=O)N(C)C)cc2c(=O)cc(N3CCOCC3)oc12 [AZD8186]
# Summary of the method: (§1)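 Cancer cell lines were plated in 1536-well plates in 7.5 μl of DMEM/F12 or RPMI with 10% FBS and kept 24 hours at 37°C and 5% CO2 before 72 hours of dosing, with final DMSO typically 0.2%. CellTiter-Glo 2.0 luminescence measured viability, scaled between blank-well and DMSO-well means. Dose responses were fitted to a two-parameter logistic curve with a non-linear mixed effects model. This fit gives the single-agent IC50.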
# AZD1775 = compound: C=CCn1c(=O)c2cnc(Nc3ccc(N4CCN(C)CC4)cc3)nc2n1-c1cccc(C(C)(C)O)n1 [AZD1775]; conditions: max 3 µM
# Summary of the method: as §1
# Savolitinib = compound: C[C@@H](c1ccc2nccn2c1)n1nnc2ncc(-c3cnn(C)c3)nc21 [Savolitinib]; conditions: max 1 µM
# Summary of the method: as §1
# Trametinib = compound: CC(=O)Nc1cccc(-n2c(=O)n(C3CC3)c(=O)c3c(Nc4ccc(I)cc4F)n(C)c(=O)c(C)c32)c1 [Trametinib]; conditions: max 1 µM
# Summary of the method: as §1
# AZD2811 = compound: CCN(CCO)CCCOc1ccc2c(Nc3cc(CC(=O)Nc4cccc(F)c4)[nH]n3)ncnc2c1 [AZD2811]; conditions: max 1 µM
# Summary of the method: as §1
# Lapatinib = compound: CS(=O)(=O)CCNCc1ccc(-c2ccc3ncnc(Nc4ccc(OCc5cccc(F)c5)c(Cl)c4)c3c2)o1 [Lapatinib]; conditions: max 10 µM
# Summary of the method: as §1
# Palbociclib = compound: CC(=O)c1c(C)c2cnc(Nc3ccc(N4CCNCC4)cn3)nc2n(C2CCCC2)c1=O [Palbociclib]; conditions: max 10 µM
# Summary of the method: as §1
# Prexasertib = compound: COc1cccc(OCCCN)c1-c1cc(Nc2cnc(C#N)cn2)n[nH]1 [Prexasertib]; conditions: max 1 µM
# Summary of the method: as §1
# SRA737 = compound: N#Cc1cnc(Nc2cc(NC[C@H]3CNCCO3)c(C(F)(F)F)cn2)cn1 [SRA737]; conditions: max 10 µM
# Summary of the method: as §1
# Olaparib = compound: O=C(c1cc(Cc2n[nH]c(=O)c3ccccc23)ccc1F)N1CCN(C(=O)C2CC2)CC1 [Olaparib]; conditions: max 10 µM
# Summary of the method: as §1
# Gefitinib = compound: COc1cc2ncnc(Nc3ccc(F)c(Cl)c3)c2cc1OCCCN1CCOCC1 [Gefitinib]; conditions: max 10 µM
# Summary of the method: as §1
# Carboplatin = compound: C1CC(C1)(C(=O)[O-])C(=O)[O-].N.N.[Pt+2] [Carboplatin]; conditions: max 10 µM
# Summary of the method: as §1
# SN-38 = compound: CCc1c2c(nc3ccc(O)cc13)-c1cc3c(c(=O)n1C2)COC(=O)[C@]3(O)CC [SN-38]; conditions: max 0.3 µM
# Summary of the method: as §1
# AZD4320 = compound: CN(CC[C@H](CSC1=CC=CC=C1)NC2=C(C=C(C=C2)S(=O)(=O)NC(=O)C3=CC=C(C=C3)N4CCC(CC4)[C@H](C5=CC=CC=C5C6=CC=C(C=C6)Cl)O)S(=O)(=O)C(F)(F)F)CCO [AZD4320]; conditions: max 1 µM
# Summary of the method: as §1
# Dasatinib = compound: CC1=C(C(=CC=C1)Cl)NC(=O)C2=CN=C(S2)NC3=CC(=NC(=N3)C)N4CCN(CC4)CCO [Dasatinib]; conditions: max 2 µM
# Summary of the method: as §1
# 5-Fluorouracil = compound: O=c1[nH]cc(F)c(=O)[nH]1 [5-Fluorouracil]; conditions: max 20 µM
# Summary of the method: as §1
# MK-2206 = compound: NC1(c2ccc(-c3nc4ccn5c(=O)[nH]nc5c4cc3-c3ccccc3)cc2)CCC1 [MK-2206]; conditions: max 10 µM
# Summary of the method: as §1
# Doxorubicin = compound: COc1cccc2c1C(=O)c1c(O)c3c(c(O)c1C2=O)C[C@@](O)(C(=O)CO)C[C@@H]3O[C@H]1C[C@H](N)[C@H](O)[C@H](C)O1 [Doxorubicin]; conditions: max 1 µM
# Summary of the method: as §1
# Gemcitabine = compound: Nc1ccn([C@@H]2O[C@H](CO)[C@@H](O)C2(F)F)c(=O)n1 [Gemcitabine]; conditions: max 0.3 µM
# Summary of the method: as §1
# [1] = compound: O=C(Nc1ccc2[nH]nc(-c3ccncc3)c2c1)[C@@H]1CCN(CC(=O)N2CCN(c3ccc(-c4ncccn4)cc3)CC2)C1; conditions: max 5 µM
# Summary of the method: as §1
# AZD5991 = compound: Cc1c2c(nn1C)CSCc1cc(n(C)n1)CSc1cc(c3ccccc3c1)OCCCc1c(C(=O)O)n(C)c3c-2c(Cl)ccc13 [AZD5991]; conditions: max 1 µM
# Summary of the method: as §1
# AZD5153 = compound: COc1nnc2ccc(N3CCC(c4ccc(OCCN5CCN(C)C(=O)[C@H]5C)cc4)CC3)nn12 [AZD5153]; conditions: max 1 µM
# Summary of the method: as §1
# AZD5363 = compound: C1CN(CCC1(C(=O)N[C@@H](CCO)C2=CC=C(C=C2)Cl)N)C3=NC=NC4=C3C=CN4 [AZD5363]; conditions: max 10 µM
# Summary of the method: as §1
# AZD6738 = compound: C[C@@H]1COCCN1C2=NC(=NC(=C2)C3(CC3)[S@](=N)(=O)C)C4=C5C=CNC5=NC=C4 [AZD6738]; conditions: max 10 µM
# Summary of the method: as §1
# SG3199 = compound: CC1=CN2[C@@H](C1)C=NC3=CC(=C(C=C3C2=O)OC)OCCCCCOC4=C(C=C5C(=C4)N=C[C@@H]6CC(=CN6C5=O)C)OC [SG3199]; conditions: max 0.001 µM
# Summary of the method: as §1
# Alisertib = compound: COc1cc(Nc2ncc3c(n2)-c2ccc(Cl)cc2C(c2c(F)cccc2OC)=NC3)ccc1C(=O)O [Alisertib]; conditions: max 10 µM
# Summary of the method: as §1
# Etoposide = compound: COc1cc([C@@H]2c3cc4c(cc3[C@@H](O[C@@H]3O[C@@H]5CO[C@@H](C)O[C@H]5[C@H](O)[C@H]3O)[C@H]3COC(=O)[C@H]23)OCO4)cc(OC)c1O [Etoposide]; conditions: max 10 µM
# Summary of the method: as §1
# Taselisib = compound: Cc1nc(-c2cn3c(n2)-c2ccc(-c4cnn(C(C)(C)C(N)=O)c4)cc2OCC3)n(C(C)C)n1 [Taselisib]; conditions: max 10 µM
# Summary of the method: as §1
# AZD7648 = compound: Cc1cc2ncnn2cc1Nc1ncc2c(n1)n(C1CCOCC1)c(=O)n2C [AZD7648]; conditions: max 10 µM
# Summary of the method: as §1
# AZD1390 = compound: CC(C)n1c(=O)n(C)c2cnc3cc(F)c(-c4ccc(OCCCN5CCCCC5)nc4)cc3c21 [AZD1390]; conditions: max 0.3 µM
# Summary of the method: as §1
# Crizotinib = compound: C[C@@H](Oc1cc(-c2cnn(C3CCNCC3)c2)cnc1N)c1c(Cl)ccc(F)c1Cl [Crizotinib]; conditions: max 10 µM
# Summary of the method: as §1
# Paclitaxel = compound: CC(=O)O[C@H]1C(=O)[C@@]2(C)[C@H]([C@H](OC(=O)c3ccccc3)[C@]3(O)C[C@H](OC(=O)[C@H](O)[C@@H](NC(=O)c4ccccc4)c4ccccc4)C(C)=C1C3(C)C)[C@]1(OC(C)=O)CO[C@@H]1C[C@@H]2O [Paclitaxel]; conditions: max 3 µM
# Summary of the method: as §1
# Venetoclax = compound: CC1(C)CCC(CN2CCN(c3ccc(C(=O)NS(=O)(=O)c4ccc(NCC5CCOCC5)c([N+](=O)[O-])c4)c(Oc4cnc5[nH]ccc5c4)c3)CC2)=C(c2ccc(Cl)cc2)C1 [Venetoclax]; conditions: max 1 µM
# Summary of the method: as §1
# AZD0156 = compound: CN(C)CCCOc1ccc(-c2ccc3ncc4c(c3c2)n(C2CCOCC2)c(=O)n4C)cn1 [AZD0156]; conditions: max 3 µM
# Summary of the method: as §1
# Selumetinib = compound: Cn1cnc2c(F)c(Nc3ccc(Br)cc3Cl)c(C(=O)NOCCO)cc21 [Selumetinib]; conditions: max 10 µM
# Summary of the method: as §1
# Capivasertib = compound: C1CN(CCC1(C(=O)N[C@@H](CCO)C2=CC=C(C=C2)Cl)N)C3=NC=NC4=C3C=CN4 [Capivasertib]; conditions: max 10 µM
# Summary of the method: as §1
Cell Line,"IC50, cell viability 72 h (AZD8186; max 10 µM)","IC50, cell viability 72 h (AZD1775)","IC50, cell viability 72 h (Savolitinib)","IC50, cell viability 72 h (Trametinib)","IC50, cell viability 72 h (AZD2811)","IC50, cell viability 72 h (Lapatinib)","IC50, cell viability 72 h (Palbociclib)","IC50, cell viability 72 h (Prexasertib)","IC50, cell viability 72 h (SRA737)","IC50, cell viability 72 h (Olaparib)","IC50, cell viability 72 h (Gefitinib)","IC50, cell viability 72 h (Carboplatin)","IC50, cell viability 72 h (SN-38)","IC50, cell viability 72 h (AZD4320)","IC50, cell viability 72 h (Dasatinib)","IC50, cell viability 72 h (5-Fluorouracil)","IC50, cell viability 72 h (MK-2206)","IC50, cell viability 72 h (Doxorubicin)","IC50, cell viability 72 h (Gemcitabine)","IC50, cell viability 72 h [1]","IC50, cell viability 72 h (AZD5991)","IC50, cell viability 72 h (AZD5153)","IC50, cell viability 72 h (AZD5363)","IC50, cell viability 72 h (AZD6738)","IC50, cell viability 72 h (SG3199)","IC50, cell viability 72 h (Alisertib)","IC50, cell viability 72 h (Etoposide)","IC50, cell viability 72 h (Taselisib)","IC50, cell viability 72 h (AZD7648)","IC50, cell viability 72 h (AZD1390)","IC50, cell viability 72 h (Crizotinib)","IC50, cell viability 72 h (Paclitaxel)","IC50, cell viability 72 h (Venetoclax)","IC50, cell viability 72 h (AZD0156)","IC50, cell viability 72 h (Selumetinib)","IC50, cell viability 72 h (AZD8186; max 3 µM)","IC50, cell viability 72 h (Capivasertib)"
NCI-H520 (Squamous Cell Lung Carcinoma),4.99 µM,1.03 µM,> 1 µM,> 1 µM,> 1 µM,> 10 µM,4.77 µM,0.0443 µM,> 10 µM,> 10 µM,> 10 µM,> 10 µM,0.046 µM,> 1 µM,> 2 µM,> 20 µM,1.87 µM,> 1 µM,0.0936 µM,> 5 µM,> 1 µM,0.923 µM,4.01 µM,7.34 µM,> 0.001 µM,8.62 µM,> 10 µM,2.34 µM,> 10 µM,> 0.3 µM,> 10 µM,0.0431 µM,> 1 µM,> 3 µM,> 10 µM,,
NCI-H3122 (Lung Adenocarcinoma),> 10 µM,> 3 µM,> 1 µM,0.0589 µM,> 1 µM,> 10 µM,2.58 µM,0.315 µM,> 10 µM,> 10 µM,> 10 µM,> 10 µM,0.0177 µM,> 1 µM,> 2 µM,> 20 µM,7.95 µM,0.237 µM,0.032 µM,0.958 µM,> 1 µM,0.612 µM,> 10 µM,7.46 µM,> 0.001 µM,> 10 µM,> 10 µM,1.08 µM,> 10 µM,> 0.3 µM,0.323 µM,0.00901 µM,> 1 µM,> 3 µM,7.82 µM,,
KP-3 (Pancreatic Carcinoma),> 10 µM,> 3 µM,> 1 µM,> 1 µM,> 1 µM,> 10 µM,> 10 µM,> 1 µM,> 10 µM,> 10 µM,> 10 µM,> 10 µM,> 0.3 µM,> 1 µM,> 2 µM,> 20 µM,> 10 µM,> 1 µM,,> 5 µM,> 1 µM,> 1 µM,> 10 µM,> 10 µM,> 0.001 µM,> 10 µM,> 10 µM,> 10 µM,> 10 µM,> 0.3 µM,> 10 µM,> 3 µM,> 1 µM,> 3 µM,> 10 µM,,
NCI-H526 (Small Cell Lung Carcinoma),> 10 µM,0.642 µM,> 1 µM,> 1 µM,> 1 µM,> 10 µM,> 10 µM,0.0838 µM,> 10 µM,> 10 µM,> 10 µM,> 10 µM,0.00257 µM,0.0434 µM,> 2 µM,12.8 µM,> 10 µM,0.107 µM,0.251 µM,> 5 µM,> 1 µM,0.0801 µM,> 10 µM,10 µM,> 0.001 µM,9.42 µM,0.713 µM,> 10 µM,> 10 µM,> 0.3 µM,7.94 µM,0.00908 µM,0.246 µM,> 3 µM,> 10 µM,,
IM-95 (Gastric Carcinoma),,> 3 µM,> 1 µM,> 1 µM,> 1 µM,> 10 µM,> 10 µM,> 1 µM,,> 10 µM,> 10 µM,,> 0.3 µM,0.398 µM,> 2 µM,,> 10 µM,> 1 µM,,,0.276 µM,> 1 µM,,> 10 µM,> 0.001 µM,> 10 µM,,7.24 µM,> 10 µM,> 0.3 µM,> 10 µM,,> 1 µM,> 3 µM,> 10 µM,> 3 µM,> 10 µM
